Like-named read-outs stand apart in the source and are kept apart here.
What was measured:
[1] = system: latent HIV-1 in U1 cell line; test: Latent HIV-1 reactivation in U1 cells (quantitative PCR of early and late viral RNA transcripts); assay type: cell-based
Protocol: Three different cell lines of HIV-1 latency were used in this study. These included J89GFP, U1 and ACH-2 cells. The J89GFP cells were a kind gift from Dr. David Levy. The ACH-2 and U1 cells were obtained through the AIDS Research and Reference Reagent Program, Division of AIDS, NIAID, NIH: Dr. Thomas Folks contributor [19]–[21]. Reactivation of latent HIV-1 in the J89GFP cells was measured by quantifying the percentage of EGFP positive cells using a BD FACScan flow cytometer with BD FACSDiva software (BD Biosciences, CA), as described previously. Reactivation of latent HIV-1 in the ACH-2 and U 1 cells was assessed by quantitative analysis of initiated and elongated HIV-1 transcripts, as described previously. All 3 cell lines were maintained in RMPI 1640 medium supplemented with 10% FBS, 0.3 mg/mL L-glutamine, 100 U/mL penicillin, and 100 µg/mL streptomycin at 37°C in humidified air with 5% CO2.
Figure 2 Latent HIV-1 reactivation activity of 57704, alone and in combination with other inducing agents, in the U1 and ACH2 cell line models of virus latency. HIV-1 expression was assessed by quantitative PCR analysis of early and late viral RNA transcripts. Where appropriate, TNFα was used as an activation control. (A) Latent HIV-1 reactivation of activity 57704 in the J89GFP cell line. […] (B) Latent HIV-1 reactivation activity of 57704 in the ACH2 cell line. (C) Latent HIV-1 reactivation of activity 57704 in the U1 cell line. (D) Graph of activation of latent HIV-1 early and late gene transcript expression in the ACH2 and U1 cell lines. EC50 values were determined in Sigma Plot by nonlinear regression, as described previously. (E) Latent HIV-1 reactivation of 5 µM 57704 in combination with 1 µM prostratin in the U1 cell line. […]. (G) Latent HIV-1 reactivation of 5 µM 57704 in combination with 2.5 µM DSF in the U1 cell line. (H) Latent HIV-1 reactivation of 5 µM 57704 in combination with 20 µM BIX-01294 in the U1 cell line. Data represent the mean ± standard deviation from 3 replicate experiments.

[2] = Cytotoxicity (MTT or CellTiter 96), HeLa; assay type: cell-based; conditions: human, HeLa cells; 24 hour incubation; mean ± SD, 3 replicates
Protocol: (§1) Following a 24 hour incubation period, cell viability was measured using either the MTT (Roche Applied Science, Indianapolis, IN) or CellTiter 96 proliferation (Promega, WI) assay.

[3] = Cytotoxicity (MTT or CellTiter 96), Jurkat; assay type: cell-based; conditions: human, Jurkat cells; 24 hour incubation; mean ± SD, 3 replicates
Protocol: as §1

[4] = target: T1, HDAC8 (Homo sapiens, UniProt Q9BY41); test: Fluorogenic HDAC activity assay, HDAC8; assay type: biochemical
T1 construct: purchased BPS Bioscience (San Diego, CA)
T1 sequence (Q9BY41 1-377): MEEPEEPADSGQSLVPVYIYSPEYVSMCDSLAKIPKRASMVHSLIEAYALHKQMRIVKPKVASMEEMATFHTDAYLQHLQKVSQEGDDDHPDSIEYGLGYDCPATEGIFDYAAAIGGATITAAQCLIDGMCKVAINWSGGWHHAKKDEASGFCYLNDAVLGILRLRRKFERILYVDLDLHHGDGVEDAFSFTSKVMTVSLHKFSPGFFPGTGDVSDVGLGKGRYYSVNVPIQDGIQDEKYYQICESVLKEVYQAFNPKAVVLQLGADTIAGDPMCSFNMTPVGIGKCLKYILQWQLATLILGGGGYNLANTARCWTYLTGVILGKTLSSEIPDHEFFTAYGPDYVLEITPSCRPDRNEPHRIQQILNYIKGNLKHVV
Protocol: (§2) The lysine deacetylase activity of HDACs 1, 2, 3, and 8 was assessed using the Fluorogenic HDAC Assay (BPS Bioscience, San Diego, CA) according to the manufacturer's instructions. […] All assays were carried out under steady-state conditions and the assay read-out was optimized for linearity both as a function of time and enzyme concentration. The formation of the fluorescent product was measured using a SpectraMax M2 Plate Reader (Molecular Devices, CA). The excitation and emission wavelengths were 360 nm and 450 nm, respectively.

[5] = system: Akt phosphorylation; test: Western blot analysis of phosphorylated Akt in J89GFP cells; assay type: cell-based; conditions: 5 µM 57704
Protocol: To gain insight into the mechanism by which 57704 reactivates latent HIV-1, we evaluated its activity in combination with inhibitors of different signaling pathways or kinases in J89GFP cells (Fig. 4A, B). […] To determine whether 57704 directly activated the PI3K/Akt signaling pathway, we next assessed the levels of Akt phosphorylation in the J89GFP cells after exposure to 5 µM 57704.

[6] = system: PI3K p110α RNA; test: PI3K isoform RNA transcript levels in J89GFP cells, p110α; assay type: cell-based; conditions: 5 µM
[7] = target: T2, HDAC3 (Homo sapiens, UniProt O15379); test: Fluorogenic HDAC activity assay, HDAC3 complexed with NCOR2; assay type: biochemical
T2 construct: purchased BPS Bioscience (San Diego, CA)
T2 sequence (O15379 whole entry): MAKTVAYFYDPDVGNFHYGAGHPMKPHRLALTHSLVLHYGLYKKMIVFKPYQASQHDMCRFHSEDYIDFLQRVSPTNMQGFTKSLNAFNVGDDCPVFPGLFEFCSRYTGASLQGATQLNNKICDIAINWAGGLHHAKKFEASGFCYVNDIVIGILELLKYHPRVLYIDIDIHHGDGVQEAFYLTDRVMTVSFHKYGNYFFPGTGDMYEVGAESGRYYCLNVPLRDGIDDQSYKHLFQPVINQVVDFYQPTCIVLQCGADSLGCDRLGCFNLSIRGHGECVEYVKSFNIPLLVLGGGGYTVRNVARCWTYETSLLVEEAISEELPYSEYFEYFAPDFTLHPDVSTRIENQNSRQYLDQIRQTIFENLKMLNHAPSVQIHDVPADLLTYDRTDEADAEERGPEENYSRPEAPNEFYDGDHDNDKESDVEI
T2 sequence (Q9Y618 395-489 partner limits assumed): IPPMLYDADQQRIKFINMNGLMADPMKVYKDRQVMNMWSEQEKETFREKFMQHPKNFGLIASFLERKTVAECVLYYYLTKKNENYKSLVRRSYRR
Protocol: as §2

[8] = system: T3, PI3K p110α; test: PI3K activity assay (PIP3 production, Millipore kit) in combination with wortmannin, p110α; assay type: biochemical; conditions: recombinant purified enzyme; 100 nM wortmannin + 5 µM compound
T3 construct: purchased Millipore (Billerica, MA)
Protocol: The production of phosphatidylinositol (3,4,5)-triphosphate (PIP3) by the four class I PI3K isoenzymes (p110 α, β, γ, δ) was assessed using the PI3 Kinase Activity/Inhibitor Assay Kit (Millipore, Billerica, MA) according to the manufacturer's instructions. This assay works on the principle that the PH domain of the protein GRP-1 binds PIP3 with high affinity and specificity. This protein binds to the glutathione plate and captures either the PIP3 generated as part of the kinase reaction or the biotinylated-PIP3 tracer included in the kit. The captured biotinylated-PIP3 is detected using streptavidin-HRP conjugate and a colorimetric read out (OD 450).
The class I PI3Ks are heterodimeric enzymes formed by association of a p110 catalytic subunit with a p85 regulatory subunit. There are 4 variants of the p110 catalytic subunit designated p110α, β, δ or γ [22]. […] Briefly, in this assay the PIP3 generated as part of the kinase reaction or the biotinylated-PIP3 tracer included in the kit is captured on a glutathione plate via its interaction with the pleckstrin homology (PH) domain of the glutathione S-transferase (GST)-fusion protein general receptor for phosphoinositides-1 (GRP-1). The captured biotinylated-PIP3 is then detected using a streptavidin-HRP conjugate and a colorimetric read out.

For `COc1cc2c(cc1OC)-c1c(OC)c(OC)cc3ccnc(c13)C2=O` [Compound 57704, 1,2,9,10-tetramethoxy-7H-dibenzo[de,g]quinolin-7-one], the EC50 ([1]; Human immunodeficiency virus 1, read-out: EC50, activation of early HIV-1 gene transcript expression) was 8.2 µM, the EC50 ([1]; Human immunodeficiency virus 1, read-out: EC50, activation of late HIV-1 gene transcript expression) was 4.9 µM and the “Latent HIV-1 reactivation activity in combination with prostratin” value ([1]; U1, 5 µM 57704 + 1 µM prostratin) was “increased in an additive manner”. The “Latent HIV-1 reactivation activity in combination with DSF” value ([1]; U1, 5 µM 57704 + 2.5 µM DSF) was “increased in an additive manner”, the “Latent HIV-1 reactivation activity in combination with SAHA” value ([1]; U1, 5 µM 57704 + 5 µM SAHA) was “increased in an additive manner” and the “Latent HIV-1 reactivation activity in combination with BIX-01294” value ([1]; U1, 5 µM 57704 + 20 µM BIX-01294) was “increased in an additive manner”. It also gave a CC50 at 24 h [2] of 293 ± 56.4 µM, a CC50 at 24 h [3] of 92.9 ± 7.5 µM and an IC50 [4] of over 50 µM. The “Akt phosphorylation (Western blot)” value [5] was “increased Akt phosphorylation”, the “Effect on PI3K p110α RNA transcript levels” value [6] was “no effect” and the IC50 [7] was over 50 µM. For the same molecule, the “Agonist activity: effect on inhibition of PI3K p110α by wortmannin” value [8] was “abrogated the ability of wortmannin to inhibit PI3K p110α”.

From article PMC3906007, “Discovery of a Small Molecule Agonist of Phosphatidylinositol 3-Kinase p110α That Reactivates Latent HIV-1” (PLoS ONE, 2014)
